Numbers after ± are expanded uncertainties.
Assay: molar heat capacity at constant pressure; xn = mol fraction of the nth substance listed
Settings: Liquid, Flow calorimetry

C=CCCCC [hex-1-ene] + CCCCO
molar heat capacity at constant pressure [J/K/mol]
Settings	x2 = 0	x2 = 0.1001	x2 = 0.2	x2 = 0.3002	x2 = 0.3999	x2 = 0.5018	x2 = 0.5997	x2 = 0.7002	x2 = 0.7999	x2 = 0.9
293.15 K, 100 kPa	179.2 ± 1.1	190.4 ± 1.2	191.6 ± 1.2	192.1 ± 1.2	188.5 ± 1.2	187.6 ± 1.2	184.9 ± 1.1	182.6 ± 1.1	178.7 ± 1.1	176.2 ± 1.1
293.15 K, 5000 kPa	174.9 ± 1.1	187.5 ± 1.2	188.7 ± 1.2	189 ± 1.2	186.7 ± 1.2	185.6 ± 1.1	183.1 ± 1.1	180 ± 1.1	177.5 ± 1.1	175.7 ± 1.1
293.15 K, 10000 kPa	172.7 ± 1.1	184.7 ± 1.1	186.3 ± 1.2	186.4 ± 1.2	184 ± 1.1	183.6 ± 1.1	180.6 ± 1.1	178.7 ± 1.1	175.1 ± 1.1	174 ± 1.1
293.15 K, 15000 kPa	169.9 ± 1.1	182.6 ± 1.1	183.1 ± 1.1	185.1 ± 1.1	182.5 ± 1.1	182.1 ± 1.1	178.5 ± 1.1	177.1 ± 1.1	173.8 ± 1.1	172.1 ± 1.1
293.15 K, 20000 kPa	168.1 ± 1	178.4 ± 1.1	179.9 ± 1.1	182.8 ± 1.1	180.1 ± 1.1	179.8 ± 1.1	176.1 ± 1.1	175.8 ± 1.1	172.4 ± 1.1	170.7 ± 1.1
293.15 K, 25000 kPa	165.7 ± 1	176.7 ± 1.1	178 ± 1.1	180.1 ± 1.1	178.8 ± 1.1	178 ± 1.1	174.8 ± 1.1	173.5 ± 1.1	170.7 ± 1.1	169.3 ± 1
313.15 K, 100 kPa	188.8 ± 1.2	204.1 ± 1.3	208 ± 1.3	209.8 ± 1.3	210.3 ± 1.3	205.3 ± 1.3	203 ± 1.3	200.2 ± 1.2	198.3 ± 1.2	193.4 ± 1.2
313.15 K, 5000 kPa	185.9 ± 1.1	199.9 ± 1.2	204.8 ± 1.3	206.6 ± 1.3	206.5 ± 1.3	202.6 ± 1.3	200.6 ± 1.2	197.6 ± 1.2	195.5 ± 1.2	192.5 ± 1.2
313.15 K, 10000 kPa	183.1 ± 1.1	196.1 ± 1.2	201.3 ± 1.2	203.2 ± 1.3	203.8 ± 1.3	199.9 ± 1.2	197.8 ± 1.2	195.2 ± 1.2	193.1 ± 1.2	190.4 ± 1.2
313.15 K, 15000 kPa	181.6 ± 1.1	193.2 ± 1.2	198.7 ± 1.2	200.9 ± 1.2	201.5 ± 1.2	197.5 ± 1.2	195.7 ± 1.2	194 ± 1.2	191.9 ± 1.2	188 ± 1.2
313.15 K, 20000 kPa	179.6 ± 1.1	191 ± 1.2	196.2 ± 1.2	198.2 ± 1.2	199.5 ± 1.2	194.1 ± 1.2	193 ± 1.2	192 ± 1.2	190.4 ± 1.2	186.5 ± 1.2
313.15 K, 25000 kPa	177.2 ± 1.1	188.1 ± 1.2	193.4 ± 1.2	194.5 ± 1.2	197 ± 1.2	192.9 ± 1.2	191.4 ± 1.2	189.4 ± 1.2	188.2 ± 1.2	185 ± 1.1
